The results in this text go back to US11401278B2, “Macrocyclic indole derivatives” (The Broad Institute, Inc., priority 2017, dated 2022).

Structures can show the parent of a compound that is named as a salt. Where two headings read alike, the source gives them in different places. Some results are limits rather than exact numbers.

As usually defined, the IC50 is the concentration at which inhibition is half-maximal. As a reminder, the EC50 is the concentration at which the effect is half-maximal. A higher EC50 goes with a less potent agent.

The conditions of data set [1]: amine bond, 60.0 °C.
The target in the next data set is MCL-1 (Homo sapiens (Human), UniProt Q07820, K194A/K197A/R201A). Nature of the data set: Protein-protein interaction assay MCL-1/Noxa BH3 peptide (MCL-1 assay, TR-FRET). The format is binding. The following applies: MBP-MCL-1 / Noxa BH3 peptide, median. Here is the method:
Protein-Protein Interaction Assay: MCL-1/Noxa BH3 Peptide (MCL-1 Assay)
The dose-dependent inhibition by the compounds described in this invention of the interaction between MCL-1 and the BH3 domain of Noxa (both human) was determined using a steady state binding competition assay with time-resolved fluorescence energy transfer (TR-FRET) readout. For that purpose MCL-1 (amino acids 173-329, N-terminal fused to Maltose Binding Protein (MBP) SEQ ID 1) and a synthetic Noxa BH3-derived peptide of sequence Biotin-PEG2-PEG2-PAELEVE-Nva-ATQLRRFGDKLNFRQKLL-amide (SEQ ID 2) served as protein receptor and tracer ligand respectively. The MBP-MCL-1 was purchased from Beryllium (Bedford, Mass., USA). The expression and purification of this protein construct has been described elsewhere (DOI:10.1371/journal.pone.0125010). The Noxa BH3-derived peptide can be obtained from e.g. Biosyntan (Berlin, Germany).
In the assay 11 different concentrations of each compound (0.1 nM, 0.33 nM, 1.1 nM, 3.8 nM, 13 nM, 44 nM, 0.15 μM, 0.51 μM, 1.7 μM, 5.9 μM and 20 μM) were typically measured as duplicates in the same microtiter plate. For that, 100-fold concentrated DMSO solutions were prepared by serial dilutions (1:3.4) of a 2 mM stock solution in a clear, 384-well microtiter plate (Greiner Bio-One, Frickenhausen, Germany). From there, 50 nl were transferred in a dark test plate (Greiner Bio-One, Frickenhausen, Germany). The assay was initiated by addition of 2 μl of a 2.5-fold concentrated MBP-MCL-1 solution (usually for a 1 nM end concentration in 5 μl reaction volume) in aqueous assay buffer [50 mM Tris/HCl pH 7, 100 mM sodium chloride (NaCl), 50 mM potassium fluoride (KF), 0.005% Tween-20, 2 mM DTT, 0.1% bovine gamma globulin (BGG)] to the compounds in the assay plate. This was followed by a 10-minute incubation step at 22° C. for pre-equilibration of the putative complex between MBP-MCL-1 and the compounds. After that, 3 μl of a 1.67-fold concentrated solution (in assay buffer) consisting of Noxa BH3-derived peptide (1 nM end concentration) and TR-FRET detection reagents [1.67 nM anti-MBP-Eu cryptate and 1.67 nM streptavidin-XL665 (both from Cisbio Bioassays, Codolet, France)], were added.
The mixture was incubated in the dark for one hour at 22° C. and then overnight at 4° C. The formation of MCL-1/Noxa complexes was determined by measuring the resonance energy transfer of the anti-MBP-Eu-cryptate antibody to the streptavidin-XL665 present in the reaction. For that purpose, the fluorescence emission at 620 nm and 665 nm after excitation at 330-350 nm was measured in a TR-FRET measuring instrument, for instance a Rubystar or a Pherastar (both from BMG Lab Technologies, Offenburg, Germany) or a Viewlux (Perkin-Elmer). The ratio of the emission at 665 nm and at 622 nm was used as indicator of the amount of MCL-1/NOXA complexes present.
The resulting data (ratio) were normalized, taking 0% inhibition as the mean value of control measurements (usually 32 data points) where all reagents were included. In this case 50 nl DMSO were used instead of compounds. A 100% inhibition corresponded to the mean value of control measurements (usually 32 data points) where all reagents except MCL-1 were included. IC50 values were determined by regression analysis based on a 4 parameter equation (minimum, maximum, IC50, Hill; Y=Max+(Min−Max)/(1+(X/IC50)^HiII) using the Screener Software (Genedata).
(In general: TR-FRET usually uses a lanthanide donor and a delayed reading to cut background.)

Data set [2] concerns SUDHL10. The data set is described as follows: Induction of caspase-3/7 activity (Assay 4), SUDHL10. In kind it is cell-based. The following applies: caspase-3/7 induction, 3 hours, median. Here is the method:
(§1) Cellular Assays Assay 4 Induction of Caspase-3/7 Activity Upon Treatment of Cells with Selected Compounds
(§2) The BH3-domain of MCL-1 sequesters pro-apoptotic proteins, thereby inhibiting apoptosis. In contrast, MCL-1 inhibitors are expected to antagonize this effect leading to an increase in apoptosis, which can be determined by measuring the activity of caspase-3/7.
(§3) The activity of caspase-3/7 was determined in DLBCL (Diffuse large B-cell lymphoma) cell lines (SUDHL5 and SUDHL10) upon treatment with different compounds, using the Caspase-Glo® 3/7 reagent from Promega (G8092).
(§4) Rim wells were excluded. The cells were incubated for 3 hours in a humidified incubator at 37° C.
(§5) For the evaluation of the results, the background measured with “medium-only” was subtracted from all other values. […] The Bella DRC Master Sheet was used to calculate EC50s, with fixed C0=1 and CI=plateau/max induction for the reference compound.

Data set [3] deals with SUDHL5. Nature of the data set: Induction of cytotoxicity (Assay 6), SUDHL5. The following applies: read-out: Cytotox SUDHL5 [M] (median) IC50, CellTiter-Glo, 5 hours, SUDHL5. (In general: Cellular ATP, detected with luciferase, serves as a proxy for viable cell number.)
The next data set has as its system AMO-1. The data set is described as follows: Antiproliferation assay (Assay 7), AMO-1. The format is cell-based. The following applies: CellTiter-Glo, 72 hours, several values per example, read-out: Antiproli AMO-1 [M] IC50. Here is the method:
(§6) Assessment of the Anti-Proliferative Effect of Compounds in Different Cell Lines
(§7) The impact of compounds on the proliferation of different cell lines was assessed using the CellTiter-Glo® Luminescent Cell Viability reagent from Promega (G7573).
(§8) In parallel, cells were plated in a reference (day 0) plate for time zero determination.
(§9) Rim wells were excluded. The cells were incubated for 72 hours in a humidified incubator at 37° C. The day 0 plate was measured by adding 30 μL/well of CTG solution (CellTiter-Glo® Luminescent Cell Viability reagent, Promega G7573) to time zero wells in the reference plate followed by a 10 minutes incubation and luminescence reading at 0.1 ms. using the PHERAstar FS microplate reader (BMG Labtech).
(§10) After 72 hours incubation, the treated plates were measured in the same way as the day 0 plate mentioned above.

Data set [4] relates to SUDHL5. The data set is described as follows: Induction of caspase-3/7 activity (Assay 4), SUDHL5. In kind it is cell-based. The following applies: caspase-3/7 induction, 3 hours, median. The procedure:
as §1, §2, §3, §4, §5

Data set [5] concerns SUDHL5. The data set is described as follows: Antiproliferation assay (Assay 7), SUDHL5. In kind it is cell-based. The following applies: CellTiter-Glo, 72 hours, median, read-out: Antiproli SUDHL5 [M] (median) IC50. The procedure: as §6, §7, §8, §9, §10
In data set [6] the test system is SUDHL10. The data set is described as follows: Induction of cytotoxicity (Assay 6), SUDHL10. The following applies: read-out: Cytotox SUDHL10 [M] (median) IC50, CellTiter-Glo, 5 hours, SUDHL10.
Another data set deals with HMC-1-8. Nature of the data set: Antiproliferation assay (Assay 7), HMC-1-8. The format is cell-based. The following applies: CellTiter-Glo, 72 hours, several values per example, read-out: Antiproli HMC-1-8 [M] IC50. Here is the method:
as §6, §7, §8, §9, §10

MCL-1, sequence (Q07820 whole entry K194A/K197A/R201A, looked up): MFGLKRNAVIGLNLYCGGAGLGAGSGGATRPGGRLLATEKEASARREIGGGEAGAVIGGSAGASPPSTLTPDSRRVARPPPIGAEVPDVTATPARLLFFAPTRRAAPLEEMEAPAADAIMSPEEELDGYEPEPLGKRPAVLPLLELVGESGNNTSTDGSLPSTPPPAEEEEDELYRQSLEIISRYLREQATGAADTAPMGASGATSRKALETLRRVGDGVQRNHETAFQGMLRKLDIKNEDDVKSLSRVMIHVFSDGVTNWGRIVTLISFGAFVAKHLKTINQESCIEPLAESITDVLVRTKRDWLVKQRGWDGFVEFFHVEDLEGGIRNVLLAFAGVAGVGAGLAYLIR

`CCOC(=O)c1c(CCCO[Si](C)(C)C(C)(C)C)c2ccc(Cl)c3c2n1CCCS(=O)(=O)N(C)Cc1nn(C)c(CC)c1-3` displayed a ring closure, yield of all isomers in data set [1] (from CCOC(=O)c1[nH]c2c(-c3c(CN(C)S(=O)(=O)CCCCl)nn(C)c3CC)c(Cl)ccc2c1CCCO[Si](C)(C)C(C)(C)C, Cs2CO3, MeCN, 50.0 mM, 18.0 h) of 74.6%.
On to `CCOC(=O)c1c(CCCO[Si](C)(C)C(C)(C)C)c2ccc(Cl)c3c2n1CCCS(=O)(=O)N(C1CC1)Cc1nn(C)c(C)c1-3`, for which the ring closure, yield of all isomers in data set [1] (from CCOC(=O)c1[nH]c2c(-c3c(CN(C4CC4)S(=O)(=O)CCCCl)nn(C)c3C)c(Cl)ccc2c1CCCO[Si](C)(C)C(C)(C)C, Cs2CO3, acetonitrile, 50.4 mM, 48.0 h) was found to be 60%.
`CCOC(=O)c1c(CCCO[Si](C)(C)C(C)(C)C)c2ccc(F)c3c2n1CCCS(=O)(=O)N(C)Cc1nn(C)c(C)c1-3` registered a ring closure, yield of all isomers in data set [1] (from CCOC(=O)c1[nH]c2c(-c3c(CN(C)S(=O)(=O)CCCCl)nn(C)c3C)c(F)ccc2c1CCCO[Si](C)(C)C(C)(C)C, Cs2CO3, NaI, acetonitrile, 87.3 mM, 240.0 h) of 47.7%.
`CCOC(=O)c1c(CCCO[Si](C)(C)C(C)(C)C)c2ccc(F)c3c2n1CCCS(=O)(=O)N(C)Cc1nn(C)c(CC)c1-3` yielded a ring closure, yield of all isomers in data set [1] (from CCOC(=O)c1[nH]c2c(-c3c(CN(C)S(=O)(=O)CCCCl)nn(C)c3CC)c(F)ccc2c1CCCO[Si](C)(C)C(C)(C)C, Cs2CO3, acetonitrile, 50.0 mM, 72.0 h) of 55.2%.
As to `CCOC(=O)c1c(CCCOc2cccc3cc(F)ccc23)c2ccc(Cl)c3c2n1CCCS(=O)(=O)N(C)C(CCN1CCOCC1)c1nn(C)c(C)c1-3` (centres unmarked), the ring closure, yield of all isomers in data set [1] (from CCOC(=O)c1[nH]c2c(-c3c(C(CCN4CCOCC4)N(C)S(=O)(=O)CCCCl)nn(C)c3C)c(Cl)ccc2c1CCCOc1cccc2cc(F)ccc12, cesium carbonate, acetonitrile, 37.4 mM, 48.0 h) came to 82%.
For the molecule `CCOC(=O)c1c(CCCOc2cccc3cc(F)ccc23)c2ccc(Cl)c3c2n1CCCS(=O)(=O)N(C)CCC(N1CCOCC1)c1nn(C)c(C)c1-3` (centres unmarked), the ring closure, yield of all isomers in data set [1] (from CCOC(=O)c1[nH]c2c(-c3c(C(CCN(C)S(=O)(=O)CCCCl)N4CCOCC4)nn(C)c3C)c(Cl)ccc2c1CCCOc1cccc2cc(F)ccc12, Cs2CO3, acetonitrile, 40.7 mM, 48.0 h) worked out at 63.7%.
The molecule `CCOC(=O)c1c(CCCOc2cccc3cc(F)ccc23)c2ccc(Cl)c3c2n1CCCS(=O)(=O)N(C1CC1)Cc1nn(C)c(CC)c1-3` had a ring closure, yield of all isomers in data set [1] (from CCOC(=O)c1[nH]c2c(-c3c(CN(C4CC4)S(=O)(=O)CCCCl)nn(C)c3CC)c(Cl)ccc2c1CCCOc1cccc2cc(F)ccc12, cesium carbonate, acetonitrile, 47.2 mM, 16.0 h) of 91%.
For the molecule `CCOC(=O)c1c(CCCOc2cccc3cc(F)ccc23)c2ccc(Cl)c3c2n1CCCS(=O)(=O)N(CC)Cc1nn(C)c(CC)c1-3`, the ring closure, yield of all isomers in [1] (from CCOC(=O)c1[nH]c2c(-c3c(CN(CC)S(=O)(=O)CCCCl)nn(C)c3CC)c(Cl)ccc2c1CCCOc1cccc2cc(F)ccc12, cesium carbonate, acetonitrile, 50.9 mM, 48.0 h) came to 73%.
In data set [1] (from CCOC(=O)c1[nH]c2c(-c3c(C(CCN4CCOCC4)N(C)S(=O)(=O)CCCCl)nn(C)c3C)cccc2c1CCCOc1cccc2ccccc12, Cs2CO3, acetonitrile, 49.6 mM, 48.0 h), `CCOC(=O)c1c(CCCOc2cccc3ccccc23)c2cccc3c2n1CCCS(=O)(=O)N(C)C(CCN1CCOCC1)c1nn(C)c(C)c1-3` (centres unmarked) had a ring closure, yield of all isomers of 99.7%.
For `CCOC(=O)c1c(CCCOc2cccc3ccccc23)c2cccc3c2n1CCCS(=O)(=O)N(CCCN1CCCC1=O)Cc1nn(C)c(CC)c1-3`, the ring closure, yield of all isomers in data set [1] (from CCOC(=O)c1[nH]c2c(-c3c(CN(CCCN4CCCC4=O)S(=O)(=O)CCCCl)nn(C)c3CC)cccc2c1CCCOc1cccc2ccccc12, NaH, DMF, 25.1 mM, 22.0 h) was 80.5%.
For the molecule `CCc1c2c(nn1C)C(N1CCOCC1)CCN(C)S(=O)(=O)CCCn1c(C(=O)O)c(CCCOc3cccc4cc(F)ccc34)c3ccc(Cl)c-2c31` (single isomer, unassigned; enantiomer 1) [Example 70, (+)-4-chloro-3-ethyl-7-{3-[(6-fluoro-1-naphthyl)oxy]propyl}-2,14-dimethyl-17-(morpholin-4-yl)-11,12,14,15,16,17-hexahydro-2H,10H-pyrazolo[3′,4′:6,7][1,2,10]thiadiazacyclotridecino[8,9,10-hi]indole-8-carboxylic acid 13,13-dioxide trifluoroacetate salt (Enantiomer 1)], the 50% inhibitory concentration (IC50) against MCL-1 came out at 0.086 µM; with SUDHL5 [3], 2.6e-06 M; in the data set with AMO-1, 7.3e-06 M; in the data set with SUDHL5 [5], 4e-06 M; with SUDHL10 [6], 4.7e-06 M; with HMC-1-8, 1.5e-05 M. Besides, the EC50 with SUDHL10 [2] worked out at 4.4 µM; in the data set on SUDHL5 [4], 2.6 µM.
On to `CCc1c2c(nn1C)CN(C1CC1)S(=O)(=O)CCCn1c(C(=O)O)c(CCCOc3cccc4cc(F)ccc34)c3ccc(Cl)c-2c31` (single isomer, unassigned; enantiomer 2) [Example 55, (+)-4-chloro-14-cyclopropyl-3-ethyl-7-{3-[(6-fluoronaphthalen-1-yl)oxy]propyl}-2-methyl-13,13-dioxo-10,11,12,13,14,15-hexahydro-2H-13lambda^6-pyrazolo[3′,4′:4,5][1,2,8]thiadiazacycloundecino[6,7,8-hi]indole-8-carboxylic acid N-ethylethanamine Salt (Enantiomer 2)], for which the IC50 at MCL-1 is 0.016 µM; in the data set on SUDHL5 [3] it was 8.2e-06 M; in the data set on AMO-1, over 3.3e-05 M; in the data set with SUDHL5 [5], 1.1e-05 M; in the data set on SUDHL10 [6], 1.3e-05 M; in the data set on HMC-1-8, 2.1e-05 M. Besides, the concentration giving a half-maximal response (EC50) with SUDHL10 [2] stood at 13 µM; in the data set with SUDHL5 [4] it was 8.9 µM.
